PubChem BioAssay AID1963843 (Molecular Pharmacology Branch, DTP, NCI, 2024)

Test system: 616215-338-R-J1-PDC complex spheroid viability
Assay: Anticancer human tumor 616215-338-R-J1-PDC patient-derived colon adenocarcinoma cell line growth inhibition [POLQ]
Conditions: for IC50: curve of first compound; for viability, T/C: stronger effect = lower value
Procedure, shortened: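 Patient-derived tumour cells were co-cultured with HUVEC and mesenchymal stem cells as multicellular spheroids at 37 °C. They were treated with POLQ inhibitors (novobiocin, ART-558, RP6685) alone or combined with other agents. Top concentrations were at or near clinical Cmax (otherwise 10 microM; SN-38 at 1 microM), decreasing in half-log steps.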

[1] = second compound 0.0316 µM, first compound 0.0316 µM
[2] = second compound 0.0316 µM, first compound 0.1 µM
[3] = second compound 0.0316 µM, first compound 0.316 µM
[4] = second compound 0.0316 µM, first compound 1 µM
[5] = second compound 0.0316 µM, first compound 3.16 µM
[6] = second compound 0.0316 µM, first compound 10 µM
[7] = second compound 0.1 µM, first compound 0.0316 µM
[8] = second compound 0.1 µM, first compound 0.1 µM
[9] = second compound 0.1 µM, first compound 0.316 µM
[10] = second compound 0.1 µM, first compound 1 µM
[11] = second compound 0.1 µM, first compound 3.16 µM
[12] = second compound 0.1 µM, first compound 10 µM
[13] = second compound 0.316 µM, first compound 0.0316 µM
[14] = second compound 0.316 µM, first compound 0.1 µM
[15] = second compound 0.316 µM, first compound 0.316 µM
[16] = second compound 0.316 µM, first compound 1 µM
[17] = second compound 0.316 µM, first compound 3.16 µM
[18] = second compound 0.316 µM, first compound 10 µM
[19] = second compound 1 µM, first compound 0.0316 µM
[20] = second compound 1 µM, first compound 0.1 µM
[21] = second compound 1 µM, first compound 0.316 µM
[22] = second compound 1 µM, first compound 1 µM
[23] = second compound 1 µM, first compound 3.16 µM
[24] = second compound 1 µM, first compound 10 µM
[25] = second compound 3.16 µM, first compound 0.0316 µM
[26] = second compound 3.16 µM, first compound 0.1 µM
[27] = second compound 3.16 µM, first compound 0.316 µM
[28] = second compound 3.16 µM, first compound 1 µM
[29] = second compound 3.16 µM, first compound 3.16 µM
[30] = second compound 3.16 µM, first compound 10 µM
[31] = second compound 10 µM, first compound 0.0316 µM
[32] = second compound 10 µM, first compound 0.1 µM
[33] = second compound 10 µM, first compound 0.316 µM
[34] = second compound 10 µM, first compound 1 µM
[35] = second compound 10 µM, first compound 3.16 µM
[36] = second compound 10 µM, first compound 10 µM
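Also: spheroids exposed to compounds for one week before readout.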
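For viability, T/C in this document: percent viability relative to DMSO vehicle wells taken as 100%.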

`C=CC(=O)N1CCN(c2nc(=O)n(-c3c(C)ccnc3C(C)C)c3nc(-c4c(O)cccc4F)c(F)cc23)C(C)C1` (stereo unspecified) + COC1C(OC(N)=O)C(O)C(Oc2ccc3c(O)c(NC(=O)c4ccc(O)c(CC=C(C)C)c4)c(=O)oc3c2C)OC1(C)C was tested, and the IC50 (second compound 0.0316 µM) was greater than 10 µM, the IC50 (second compound 0.1 µM) was greater than 10 µM and the IC50 (second compound 0.316 µM) was greater than 10 µM. It also gave an IC50 (second compound 1 µM) greater than 10 µM, an IC50 (second compound 3.16 µM) greater than 10 µM and an IC50 (second compound 10 µM) greater than 10 µM. It also gave a viability, T/C [1] of 105%, a viability, T/C [2] of 99.7% and a viability, T/C [3] of 98.4%. The viability, T/C [4] was 108%, the viability, T/C [5] was 113% and the viability, T/C [6] was 106%. The viability, T/C [7] was 98.4%, the viability, T/C [8] was 98.1% and the viability, T/C [9] was 98%. It also gave a viability, T/C [10] of 93.3%, a viability, T/C [11] of 104% and a viability, T/C [12] of 87.8%. The viability, T/C [13] was 104%, the viability, T/C [14] was 99.7% and the viability, T/C [15] was 99.6%. For the same compound, the viability, T/C [16] was 95%, the viability, T/C [17] was 107% and the viability, T/C [18] was 95.8%. The viability, T/C [19] was 96.9%, the viability, T/C [20] was 95.8% and the viability, T/C [21] was 94%. The viability, T/C [22] was 101%, the viability, T/C [23] was 105% and the viability, T/C [24] was 90.6%. The viability, T/C [25] was 94.8%, the viability, T/C [26] was 103% and the viability, T/C [27] was 94.3%. It also gave a viability, T/C [28] of 95%, a viability, T/C [29] of 104% and a viability, T/C [30] of 70.4%. For the same compound, the viability, T/C [31] was 99.7%, the viability, T/C [32] was 94.3% and the viability, T/C [33] was 98%. It also gave a viability, T/C [34] of 102%, a viability, T/C [35] of 102% and a viability, T/C [36] of 83.6%.
With `CC(C)n1c(=O)n(C)c2cnc3cc(F)c(-c4ccc(OCCCN5CCCCC5)nc4)cc3c21` + COC1C(OC(N)=O)C(O)C(Oc2ccc3c(O)c(NC(=O)c4ccc(O)c(CC=C(C)C)c4)c(=O)oc3c2C)OC1(C)C the IC50 (second compound 0.0316 µM) was greater than 10 µM, the IC50 (second compound 0.1 µM) was greater than 10 µM and the IC50 (second compound 0.316 µM) was greater than 10 µM. The IC50 (second compound 1 µM) was greater than 10 µM, the IC50 (second compound 3.16 µM) was greater than 10 µM and the IC50 (second compound 10 µM) was greater than 10 µM. The viability, T/C [1] was 92.8%, the viability, T/C [2] was 94.6% and the viability, T/C [3] was 104%. For the same compound, the viability, T/C [4] was 109%, the viability, T/C [5] was 130% and the viability, T/C [6] was 104%. The viability, T/C [7] was 97.8%, the viability, T/C [8] was 98.6% and the viability, T/C [9] was 101%. The viability, T/C [10] was 108%, the viability, T/C [11] was 112% and the viability, T/C [12] was 113%. It also gave a viability, T/C [13] of 108%, a viability, T/C [14] of 98.6% and a viability, T/C [15] of 104%. The viability, T/C [16] was 99.6%, the viability, T/C [17] was 121% and the viability, T/C [18] was 99.5%. For the same compound, the viability, T/C [19] was 117%, the viability, T/C [20] was 117% and the viability, T/C [21] was 95.2%. For the same compound, the viability, T/C [22] was 106%, the viability, T/C [23] was 116% and the viability, T/C [24] was 102%. The viability, T/C [25] was 112%, the viability, T/C [26] was 111% and the viability, T/C [27] was 109%. The viability, T/C [28] was 105%, the viability, T/C [29] was 99.6% and the viability, T/C [30] was 93.2%. It also gave a viability, T/C [31] of 99.9%, a viability, T/C [32] of 102% and a viability, T/C [33] of 101%. For the same compound, the viability, T/C [34] was 102%, the viability, T/C [35] was 107% and the viability, T/C [36] was 94.5%.
`CCCS(=O)(=O)Nc1ccc(F)c(C(=O)c2c[nH]c3ncc(-c4ccc(Cl)cc4)cc23)c1F` + COC1C(OC(N)=O)C(O)C(Oc2ccc3c(O)c(NC(=O)c4ccc(O)c(CC=C(C)C)c4)c(=O)oc3c2C)OC1(C)C showed an IC50 (second compound 0.0316 µM) of 6.22 µM, an IC50 (second compound 0.1 µM) of 5.9 µM and an IC50 (second compound 0.316 µM) of 5.7 µM. The IC50 (second compound 1 µM) was 5.66 µM, the IC50 (second compound 3.16 µM) was 6.01 µM and the IC50 (second compound 10 µM) was 5.82 µM. The viability, T/C [1] was 99.9%, the viability, T/C [2] was 99.7% and the viability, T/C [3] was 100%. The viability, T/C [4] was 108%, the viability, T/C [5] was 97.1% and the viability, T/C [6] was 16.8%. For the same compound, the viability, T/C [7] was 98.2%, the viability, T/C [8] was 116% and the viability, T/C [9] was 102%. For the same compound, the viability, T/C [10] was 107%, the viability, T/C [11] was 91.1% and the viability, T/C [12] was 15.2%. For the same compound, the viability, T/C [13] was 109%, the viability, T/C [14] was 113% and the viability, T/C [15] was 95.8%. For the same compound, the viability, T/C [16] was 99.7%, the viability, T/C [17] was 83.8% and the viability, T/C [18] was 18.9%. For the same compound, the viability, T/C [19] was 113%, the viability, T/C [20] was 103% and the viability, T/C [21] was 96.7%. For the same compound, the viability, T/C [22] was 105%, the viability, T/C [23] was 86.4% and the viability, T/C [24] was 14.1%. For the same compound, the viability, T/C [25] was 96.6%, the viability, T/C [26] was 99.7% and the viability, T/C [27] was 98.1%. For the same compound, the viability, T/C [28] was 107%, the viability, T/C [29] was 91.3% and the viability, T/C [30] was 16.9%. For the same compound, the viability, T/C [31] was 106%, the viability, T/C [32] was 97.8% and the viability, T/C [33] was 104%. For the same compound, the viability, T/C [34] was 93%, the viability, T/C [35] was 89.9% and the viability, T/C [36] was 15.8%.
